Measurements as given in patent US20090181975A1, “NEBIVOLOL IN THE TREATMENT OF SEXUAL DYSFUNCTION” (FOREST LABORATORIES HOLDINGS LIMITED, priority 2008, published 2009).

What was measured:
[1] = tested on: diabetic rats; experiment: Erectile responses to cavernosal nerve electrical stimulation (CNES) in STZ-diabetic rats; format: in vivo, rat (Sprague-Dawley); conditions: for erectile responses after sildenafil compared with non diabetic rats treated with sildenafil: 10 days treatment, then sildenafil 0.3 mg/kg i.v.
Protocol: Male Sprague-Dawley rats were used as a model for this study. Diabetes was induced by a single injection of streptozotocin (STZ, 60 mg/kg; i.p.) dissolved in 0.1 M citric acid/trisodic citrate buffer (pH 4-4.5) and was assessed by glycemia determination 72 h after induction. Animals were kept, with free access to food and water, for 8 weeks before experimental assays. Eight weeks after induction of diabetes, rats show reduced erectile responses (Angulo et al., Naunyn-Schmiedeberg's Arch Pharmacol, 358(5), 529-37, 1998; Angulo et al., J. Sex Med., 2, 341-346, 2005). Blood glucose concentration was determined each week and just before the experiment. Insulin levels were not determined. Rats were anesthetized with ketolar and diazepam. The surgical procedure consisted of dissection and isolation of the right cavernous nerve through an abdominal midline incision and exposure of penile crura through a transverse perineal incision. Intracavernosal pressure (ICP) measurements were permitted by insertion of a 23-gauge needle into the right crus. The right carotid artery and left external jugular vein were catheterized for constant blood pressure measurement and saline infusion, respectively. Electrostimulation was performed with a delicate platinum bipolar hook electrode connected to a stimulator and current amplifier. The parameters of electrical stimulation consisted of pulses with a duration of 0.3 ms and 1.5 mA of current intensity for 1 min. Frequency-response curves were performed by applying stimulation at 1, 3 and 10 Hz with a lapse of 3 min between each increase of frequency (Angulo et al., J. Sex Med., 2, 341-346, 2005). […] After this period of treatment, the diabetic rats were anesthetized and ICP responses to electrical stimulation were evaluated. After an equilibration period, the PDE5 inhibitor sildenafil (0.3 mg/kg) or the vehicle (25% glycofurol) was intravenously administered. Forty five minutes later, ICP responses were again determined

[2] = tested on: nitrite plus nitrate (NOx) in rat serum; experiment: Serum nitrite plus nitrate (NOx) by Griess colorimetric method; format: in vivo; conditions: for effect on serum NOx concentration: i.v.: nebivolol 3 mg/kg, atenolol 3 mg/kg, vs vehicle
Protocol: Total NO derivatives (nitrites plus nitrates) were measured in pre-filtered (10,000 MW pore size) serum samples from the studied rats by the Griess colorimetric method, using a commercial kit for nitrite and nitrate determination from Cayman Chemical Co. (Ann Arbor, Mich.). Serum concentrations of NOx were determined 10 minutes after nebivolol administration.

[3] = tested on: nitrite plus nitrate (NOx) in rat serum; experiment: Serum NOx in STZ-diabetic rats; format: in vivo, rat (Sprague-Dawley); conditions: for effect on NOx content in sera from diabetic rats: 3 and 10 mg/kg/day s.c. for 10 days
Protocol: Male Sprague-Dawley rats were used as a model for this study. Diabetes was induced by a single injection of streptozotocin (STZ, 60 mg/kg; i.p.) dissolved in 0.1 M citric acid/trisodic citrate buffer (pH 4-4.5) and was assessed by glycemia determination 72 h after induction. Animals were kept, with free access to food and water, for 8 weeks before experimental assays. Eight weeks after induction of diabetes, rats show altered in vivo vascular function (Angulo et al., Naunyn-Schmiedeberg's Arch Pharmacol, 358(5), 529-37, 1998) and reduced erectile responses (Angulo et al., J. Sex Med., 2, 341-346, 2005). Blood glucose concentration was determined each week and just before the experiment. Insulin levels were not determined. Total NO derivatives (nitrites plus nitrates) were measured in pre-filtered (10,000 MW pore size) serum samples from the studied rats by the Griess colorimetric method, using a commercial kit for nitrite and nitrate determination from Cayman Chemical Co. (Ann Arbor, Mich.). See […] et al., Methods Enzymol., 268, 142-151, 1996. […] After 10 days treatment, diabetic rats were anesthetized and erectile responses to cavernosal nerve electrical stimulation (CNES) were determined. After an equilibration period, the PDE-5 inhibitor sildenafil (0.3 mg/kg) or the vehicle (25% glycofurol) was intravenously administered. Forty five minutes later, erectile responses to CNES were again evaluated, and 5 min after CNES application, blood was collected for obtaining plasma and serum, and the penis was excised. Serum samples were immediately frozen until determinations of NOx and TBARS. Plasma and penile tissues were immediately frozen until determinations of cGMP.

[4] = tested on: cGMP in rat plasma; experiment: Plasma cGMP in STZ-diabetic rats; format: in vivo, rat (Sprague-Dawley)
Protocol: (§1) Male Sprague-Dawley rats were used as a model for this study. Diabetes was induced by a single injection of streptozotocin (STZ, 60 mg/kg; i.p.) dissolved in 0.1 M citric acid/trisodic citrate buffer (pH 4-4.5) and was assessed by glycemia determination 72 h after induction. Animals were kept, with free access to food and water, for 8 weeks before experimental assays. Eight weeks after induction of diabetes, rats show altered in vivo vascular function (Angulo et al., Naunyn-Schmiedeberg's Arch Pharmacol, 358(5), 529-37, 1998) and reduced erectile responses (Angulo et al., J. Sex Med., 2, 341-346, 2005). Blood glucose concentration was determined each week and just before the experiment. Insulin levels were not determined. Plasma samples were collected, immediately frozen and stored at −80° C. until extraction for cyclic nucleotide assay. Samples were then precipitated in ethanol, centrifuged and the supernatant was dried under a nitrogen stream. Penile tissues were rapidly immersed in liquid nitrogen and were stored at −80° C. until extraction for cyclic nucleotide assay. […] After 10 days treatment, diabetic rats were anesthetized and erectile responses to cavernosal nerve electrical stimulation (CNES) were determined. After an equilibration period, the PDE-5 inhibitor sildenafil (0.3 mg/kg) or the vehicle (25% glycofurol) was intravenously administered. Forty five minutes later, erectile responses to CNES were again evaluated, and 5 min after CNES application, blood was collected for obtaining plasma and serum, and the penis was excised. Serum samples were immediately frozen until determinations of NOx and TBARS. Plasma and penile tissues were immediately frozen until determinations of cGMP.

[5] = tested on: cGMP in penile tissue; experiment: Penile tissue cGMP in STZ-diabetic rats; format: in vivo, rat (Sprague-Dawley); conditions: for cGMP content in penile tissue from diabetic rats after administration of sildenafil: then sildenafil 0.3 mg/kg i.v.
Protocol: as §1

[6] = tested on: human corpus cavernosum (HCC) strips; experiment: Relaxation of human corpus cavernosum strips contracted with U46619; format: cell-based; conditions: for relaxation of HCC strips by cumulative addition: U46619 1-3 nM, nebivolol 1 nM to 0.1 mM; for relaxation of HCC strips by cumulative addition / effect on sildenafil-induced relaxation of HCC strips: sildenafil 1 nm to 10 μM; for effect on acetylcholine-induced endothelium-dependent relaxation of HCC strips: metoprolol 1 μM, nebivolol 0.3 μM; for effect on acetylcholine-induced endothelium-dependent relaxation of HCC strips / effect on sildenafil-induced relaxation of HCC strips: atenolol 1 μM; for effect on sildenafil-induced relaxation of HCC strips: nebivolol at 1 and 10 μM
Protocol: Specimens of human corpus cavernosum were obtained from organ donors and from impotent men at the time of penile prosthesis implantation. Tissues were placed in ice-cold M-400 solution (pH 7.4; 400 mOsm/kg, composition in w/v: 4.19% manitol, 0.2% KH2PO4, 0.97% K2HPO4.3H2O, 0.11% KCl and 0.08% NaHCO3) at the time of removal and transported to the laboratory for utilization within 16 h. Strips of human corpus cavemosum were mounted on force transducers in 8 ml organ baths (37° C.) containing physiological salt solution (PSS) continuously bubbled with 95% O2/5% CO2 mixture to maintain a pH of 7.4. Strips were contracted with the thromboxane receptor agonist U46619 (1-3 nM) and relaxation responses were evaluated by cumulative additions of compounds to the chambers.

[7] = 3 mg/kg/day s.c. for 10 days, sildenafil 0.3 mg/kg i.v.
[8] = 10 mg/kg/day s.c. for 10 days, sildenafil 0.3 mg/kg i.v., atenolol: measured as AUC of ICP

SMILES	potentiation by sildenafil of erectile responses after 10 days treatment [1, 7]	potentiation by sildenafil of erectile responses after 10 days treatment [1, 8]	erectile responses after sildenafil compared with non diabetic rats treated with sildenafil [1]	effect on serum NOx concentration ([2]; sildenafil 0.3 mg/kg)	effect on NOx content in sera from diabetic rats [3]	cGMP content in penile tissue from diabetic rats after administration of sildenafil ([5]; 3 and 10 mg/kg/day for 10 days)	relaxation of HCC strips by cumulative addition [6]	effect on acetylcholine-induced endothelium-dependent relaxation of HCC strips [6]	effect on sildenafil-induced relaxation of HCC strips [6]	further results
OC(CNCC(O)C1CCc2cc(F)ccc2O1)C1CCc2cc(F)ccc2O1 (racemic) [nebivolol, α,α′-iminobis(methylene)bis[6-fluoro-2-chromanmethanol]]	No significant potentiation	No significant potentiation	not significant differences	significantly higher than after vehicle	significantly increased	significantly higher than those obtained in diabetic rats treated with vehicle	modest relaxant effect	not significantly modified	significantly potentiated	erectile effect of 3 mg/kg/day dose compared with 10 mg/kg/day dose ([1]; 3 mg/kg/day for 10 days): equally as effective as the 10 mg/kg/day dose; effect on erectile responses in diabetic rats in the absence of the PDE5 inhibitor ([1]; 3 and 10 mg/kg/day for 10 days): significantly enhanced; erectile responses in treated diabetic rats compared with non diabetic rats ([1]; 3 and 10 mg/kg/day for 10 days, no PDE5 inhibitor): not significantly different from those achieved by non diabetic rats; increase of the concentration of NOx in serum compared to the vehicle ([2]; 3 mg/kg i.v.): three-fold increase; concentration of NOx in serum ([2]; 3 mg/kg i.v., 10 minutes after administration, vehicle 4.9±0.4, p<0.05): 15.4 ± 2.8 µM; NOx effect, comparison of doses ([3]; 3 vs 10 mg/kg/day): more marked with the 3 mg/kg/day dose; effect on plasma cGMP content in diabetic rats ([4]; 3 and 10 mg/kg/day for 10 days): did not result in significant modifications; influence on the effects of sildenafil on plasma cGMP content in diabetic rats ([4]; 3 and 10 mg/kg/day for 10 days, sildenafil 0.3 mg/kg i.v.): did not influence; effect on cGMP content in penile tissue from diabetic rats ([5]; 3 and 10 mg/kg/day for 10 days): statistically significant increase; effect on acetylcholine-induced (endothelium-dependent) relaxation of HCC ([6]; pre-treatment with nebivolol 10 μM): potentiated
CC(C)NCC(O)COc1ccc(CC(N)=O)cc1 (stereo not drawn) [atenolol]	did not reach statistical significance	reached statistical significance	significantly reduced erectile responses	did not significantly alter	did not affect	did not modify		not significantly modified	not affected	effect of the higher dose on erectile function in diabetic rats ([1]; 10 mg/kg/day for 10 days): did not positively affect
CCCc1nn(C)c2c(=O)[nH]c(-c3cc(S(=O)(=O)N4CCN(C)CC4)ccc3OCC)nc12 [sildenafil]				did not alter NOx levels			concentration dependent relaxations			effect on erectile responses to CNES in diabetic rats ([1]; sildenafil 0.3 mg/kg i.v., vehicle-treated diabetic rats): potentiation of erectile responses; effect on nebivolol-induced increment in serum NOx ([2]; nebivolol 3 mg/kg i.v., L-NAME 3 mg/kg, ODQ 1 mg/kg, propranolol 1 mg/kg, sildenafil 0.3 mg/kg): did not alter NOx levels or affect nebivolol-induced effects; effect on serum NOx content in rats ([3]; sildenafil 0.3 mg/kg i.v.): did not modify; influence on the effects of nebivolol and atenolol on NOx content in sera from diabetic rats ([3]; sildenafil 0.3 mg/kg i.v.): not influenced; effect on plasma cGMP levels in diabetic and non diabetic rats ([4]; sildenafil 0.3 mg/kg i.v.): marked increase; effect on cGMP levels in penile tissue from diabetic and non diabetic rats ([5]; sildenafil 0.3 mg/kg i.v.): produced an increase
